This is an account of results in patent publication US11339171B2, “MDM2 inhibitors” (Gan & Lee Pharmaceuticals, priority 2017, dated 2022).

The structures appear in SMILES notation. pIC50: −log10 of the molar value.

The target in one experiment is T1, MDM2 (Homo sapiens, UniProt Q00987).
T1 construct: made in house
The experiment in a line: Inhibition test of MDM2-P53 (GST-MDM2, Biotin-P53, Anti-GST-Tb, SA-XL665). It counts as binding. The method in brief: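 Compounds, serially diluted 5-fold (twelve concentrations), were shaken for 90 min at 25° C with a mix of GST-MDM2 (4 nM final), Biotin-P53, anti-GST-Tb and SA-XL665. Buffer: 1×PBS, 0.1% BSA, 5 mM DTT, 1 mM AEBSF; signal read on a microplate reader.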

Experiment [1] deals with human osteosarcoma cell line SJSA-1. The experiment is described as follows: Inhibition of proliferation of human osteosarcoma cell line SJSA-1 (DAPI staining, In Cell Analyzer). The following applies: Homo sapiens, SJSA-1, 72 h, read-out: IC50 (nM), inhibitory activity on proliferation of human osteosarcoma cell line SJSA-1, SJSA-1, incubated 72 h.

T1 sequence (Q00987 whole entry): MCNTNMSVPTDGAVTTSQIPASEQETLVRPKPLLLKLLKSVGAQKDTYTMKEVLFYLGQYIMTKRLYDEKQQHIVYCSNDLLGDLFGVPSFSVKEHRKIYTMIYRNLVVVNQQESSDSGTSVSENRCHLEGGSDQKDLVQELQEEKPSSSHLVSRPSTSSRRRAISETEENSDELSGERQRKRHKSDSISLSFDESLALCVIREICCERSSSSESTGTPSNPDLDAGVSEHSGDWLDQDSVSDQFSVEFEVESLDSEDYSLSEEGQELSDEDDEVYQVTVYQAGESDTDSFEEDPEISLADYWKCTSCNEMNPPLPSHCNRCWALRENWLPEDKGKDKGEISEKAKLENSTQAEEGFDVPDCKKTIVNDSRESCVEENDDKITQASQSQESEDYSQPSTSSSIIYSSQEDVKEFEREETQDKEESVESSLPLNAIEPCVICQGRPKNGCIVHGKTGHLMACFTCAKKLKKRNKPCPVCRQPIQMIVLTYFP

For the molecule `COc1cc(N)ccc1-c1nc2c(n1C(C)C)[C@]1(C(=O)Nc3cc(Cl)ccc31)N(c1cc(F)cc(Cl)c1)C2=O` [Example R-67, (R)-2′-(4-amino-2-methoxyphenyl)-6-chloro-5′-(3-chloro-5-fluorophenyl)-3′-isopropyl-3′H-spiro[dihydroindole-3,4′-pyrrolo[3,4-d]imidazole]-2,6′(5′H)-dione], the negative-log IC50 (pIC50) against MDM2 is 6.45. Besides, the IC50 in experiment [1] worked out at 8490 nM.

For `COc1cc(OC(C)C)ncc1-c1nc2c(n1C(C)C)[C@]1(C(=O)Nc3cc(Cl)ccc31)N(c1cc(Cl)ccc1C)C2=O` [Example R-69, (R)-6-chloro-5′-(5-chloro-2-methylphenyl)-2′-(6-isopropoxy-4-methoxypyridin-3-yl)-3′-isopropyl-3′H-spiro[dihydroindole-3,4′-pyrrolo[3,4-d]imidazole]-2,6′(5′H)-dione], the pIC50 on MDM2 is 6.20. In experiment [1], the IC50 is 6580 nM.

Take `COc1ccc(CC(=O)N(C)C)cc1-c1nc2c(n1C(C)C)[C@]1(C(=O)Nc3cc(Cl)ccc31)N(c1cc(Cl)ccc1C)C2=O` [Example R-70, (R)-2-(3-(6-chloro-5′-(5-chloro-2-methylphenyl)-3′-isopropyl-2,6′-dioxo-5′,6′-dihydro-3′H-spiro[dihydroindole-3,4′-pyrrolo[3,4-d]imidazole]-2′-yl)-4-methoxyphenyl)-N,N-dimethylacetamide]: the pIC50 against MDM2 is 6.95. Besides, in experiment [1], the IC50 worked out at 4210 nM.

For the molecule `COc1ccc(N2C(=O)c3nc(-c4ccc(N)cc4OC)n(C(C)C)c3[C@]23C(=O)Nc2cc(Cl)ccc23)cc1Cl` [Example R-71, (R)-2′-(4-amino-2-methoxyphenyl)-6-chloro-5′-(3-chloro-4-methoxyphenyl)-3′-isopropyl-3′H-spiro[dihydroindole-3,4′-pyrrolo[3,4-d]imidazole]-2,6′(5′H)-dione], the pIC50 at MDM2 is 7.00. The IC50 in experiment [1] is 7020 nM.

The molecule `CCOc1cc(OC)c(-c2nc3c(n2C(C)C)[C@]2(C(=O)Nc4cc(Cl)ccc42)N(c2cc(Cl)ccc2C)C3=O)cn1` [Example R-72, (R)-6-chloro-5′-(5-chloro-2-methylphenyl)-2′-(6-ethoxy-4-methoxypyridin-3-yl)-3′-isopropyl-3′H-spiro[dihydroindole-3,4′-pyrrolo[3,4-d]imidazole]-2,6′(5′H)-dione] gave a pIC50 against MDM2 of 6.67. Further, the IC50 in experiment [1] came out at 3480 nM.

Molecule `COc1cc(N)c(C)cc1-c1nc2c(n1C(C)C)[C@]1(C(=O)Nc3cc(Cl)ccc31)N(c1cc(Cl)ccc1C)C2=O` [Example R-74, (R)-2′-(4-amino-2-methoxy-5-methylphenyl)-6-chloro-5′-(5-chloro-2-methylphenyl)-3′-isopropyl-3′H-spiro[dihydroindole-3,4′-pyrrolo[3,4-d]imidazole]-2,6′(5′H)-dione] gave a pIC50 against MDM2 of 7.03. In experiment [1], the IC50 turned out to be 1840 nM.

For the molecule `COc1cc(N)c(F)cc1-c1nc2c(n1C(C)C)[C@]1(C(=O)Nc3cc(Cl)ccc31)N(c1cc(Cl)ccc1C)C2=O` [Example R-75, (R)-2′-(4-amino-5-fluoro-2-methoxyphenyl)-6-chloro-5′-(5-chloro-2-methylphenyl)-3′-isopropyl-3′H-spiro[dihydroindole-3,4′-pyrrolo[3,4-d]imidazole]-2,6′(5′H)-dione], the pIC50 against MDM2 is 6.91. Moreover, the IC50 in experiment [1] came to 3040 nM.

As for `COc1cc(N(C)C)c(F)cc1-c1nc2c(n1C(C)C)[C@]1(C(=O)Nc3cc(Cl)ccc31)N(c1cc(Cl)ccc1C)C2=O` [Example R-78], the pIC50 on MDM2 is 6.65. Further, the IC50 in experiment [1] is 1360 nM.

Consider `COc1cc(N(C)C)ccc1-c1nc2c(n1C(C)C)[C@]1(C(=O)Nc3cc(Cl)ccc31)N(c1cc(Cl)ccc1F)C2=O` [Example R-81, (R)-6-chloro-5′-(5-chloro-2-fluorophenyl)-2′-(4-(dimethylamino)-2-methoxyphenyl)-3′-isopropyl-3′H-spiro[dihydroindole-3,4′-pyrrolo[3,4-d]imidazole]-2,6′(5′H)-dione], for which, on MDM2, the pIC50 is 7.27. Further, the IC50 in experiment [1] was 1600 nM.
